Assay [1] concerns the target human orexin 2 receptor (Homo sapiens (Human), UniProt O43614). Description: Human orexin 2 receptor radioligand binding ([3H]-EMPA competition, HEK293 cells). Conditions: [3H]-EMPA competition binding, read-out: hOX2 Ki.
Assay [2] deals with human orexin 1 receptor (Homo sapiens (Human), UniProt O43613). In words: Human orexin 1 receptor radioligand binding ([3H]-SB674042 competition, CHO cells). To be noted: [3H]-SB674042 competition binding, read-out: hOX1 Ki.

In US9475819B2, “Substituted 7-azabicycles and their use as orexin receptor modulators” (Janssen Pharmaceutica NV, priority 2013, dated 2016) one finds Ki data, which are given here for two compounds.

SMILES strings stand for the structures.

Sequence of human orexin 2 receptor (O43614 whole entry): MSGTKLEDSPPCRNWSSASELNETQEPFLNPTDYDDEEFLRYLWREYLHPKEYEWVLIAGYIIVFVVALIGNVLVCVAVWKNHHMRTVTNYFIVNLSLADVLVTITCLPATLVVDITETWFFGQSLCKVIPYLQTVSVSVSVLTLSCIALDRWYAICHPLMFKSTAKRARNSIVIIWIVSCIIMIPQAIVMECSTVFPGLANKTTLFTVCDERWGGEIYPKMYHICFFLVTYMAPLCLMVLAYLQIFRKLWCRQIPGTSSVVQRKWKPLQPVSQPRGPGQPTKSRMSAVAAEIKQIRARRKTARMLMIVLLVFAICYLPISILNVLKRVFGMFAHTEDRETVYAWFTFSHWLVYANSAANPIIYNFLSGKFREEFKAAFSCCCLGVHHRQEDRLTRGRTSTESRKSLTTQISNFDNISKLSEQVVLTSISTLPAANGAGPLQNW
Sequence of human orexin 1 receptor (O43613 whole entry): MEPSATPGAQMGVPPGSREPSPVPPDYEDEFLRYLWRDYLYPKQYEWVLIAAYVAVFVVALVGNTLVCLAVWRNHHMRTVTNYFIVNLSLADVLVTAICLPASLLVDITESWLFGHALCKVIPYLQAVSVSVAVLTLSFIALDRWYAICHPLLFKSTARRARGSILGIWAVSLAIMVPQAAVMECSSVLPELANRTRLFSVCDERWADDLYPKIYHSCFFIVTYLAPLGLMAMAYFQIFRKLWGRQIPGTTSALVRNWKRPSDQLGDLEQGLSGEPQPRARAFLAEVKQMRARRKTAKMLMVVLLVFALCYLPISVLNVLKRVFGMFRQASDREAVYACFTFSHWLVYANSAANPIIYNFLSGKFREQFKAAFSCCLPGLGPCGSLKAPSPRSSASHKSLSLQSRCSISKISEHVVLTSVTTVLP

`Cc1ccc(-n2nccn2)c(C(=O)N2C3CCC2C(Nc2ccc(C(F)(F)F)cn2)C3)n1` (racemic) [Example 187, (±)-(6-methyl-3-(2H-1,2,3-triazol-2-yl)pyridin-2-yl)(2-((5-(trifluoromethyl)pyridin-2-yl)amino)-7-azabicyclo[2.2.1]heptan-7-yl)methanone]: the inhibition constant (Ki) in assay [1] was 0.62 µM; in assay [2] it was 0.048 µM. `Cc1ccc(-n2nccn2)c(C(=O)N2[C@H]3CC[C@@H]2[C@@H](COc2ccc(F)cn2)C3)c1` (single isomer, unassigned) [Example 10B]: the inhibition constant Ki in assay [1] is 5.15 µM.

As a reminder, the Ki is a dissociation constant, usually derived from enzyme kinetics or from competition with a known ligand.
